Structures can show the parent of a compound that is named as a salt.
Columns and labels:
[1] = Determination of the solubility in 5% strength aqueous dextrose solution; type: physicochemical; settings: saline or isotonic, thermodynamic from solid, room temperature, 24 h
Description: a) Determination of the Solubility:
The test substance is suspended in 5% strength aqueous dextrose solution. This suspension is shaken at room temperature for 24 h. After ultracentrifugation at 224 000 g for 30 min, the supernatant is diluted with DMSO and analysed by HPLC. A two-point calibration plot of the test compound in DMSO is used for quantification.
Agilent 1100 with DAD (G1315A), quat. Pump (G1311A), autosampler CTC HTS PAL, degasser (G1322A) and column thermostat (G1316A); column: Phenomenex Gemini C18, 5 μm, 50 mm×2 mm; temperature: 40° C.; eluent A: water/phosphoric acid pH 2, eluent B: acetonitrile; flow rate: 0.7 ml/min; gradient: 0-0.5 min 85% A, 15% B; ramp 0.5-3 min 10% A, 90% B; 3-3.5 min 10% A, 90% B; ramp 3.5-4 min 85% A, 15% B; 4-5 min 85% A, 15% B.
Agilent 1100 with DAD (G1315A), quat. pump (G1311A), autosampler CTC HTS PAL, degasser (G1322A) and column thermostat (G1316A); column: VDSoptilab Kromasil 100 C18, 3.5 μm, 60 mm×2.1 mm; temperature: 30° C.; eluent A: water+5 ml of perchloric acid/liter, eluent B: acetonitrile; flow rate: 0.75 ml/min; gradient: 0-0.5 min 98% A, 2% B; ramp 0.5-4.5 min 10% A, 90% B; 4.5-6 min 10% A, 90% B; ramp 6.5-6.7 min 98% A, 2% B; 6.7-7.5 min 98% A, 2% B.

[2] = Stability in buffer at various pH values; type: physicochemical
Description: b) Stability in Buffer at Various pH Values:
0.3 mg of the test substance is weighed into a 2 ml HPLC vial and 0.5 ml of acetonitrile or acetonitrile/DMSO (9:1) is added. The substance is dissolved by putting the sample vessel in an ultrasonic bath for about 10 seconds. Then 0.5 ml of the respective buffer solution is added, and the sample is again treated in the ultrasonic bath.
pH 2: 0.03 mol of citric acid, 0.061 mol of sodium chloride and 0.0082 mol of hydrochoric acid ad 1 liter of water;
pH 4: 1 liter of Millipore water is adjusted to pH 4.0 with 1 N hydrochloric acid;
pH 5: 0.096 mol of citric acid and 0.2 mol of sodium hydroxide ad 1 liter of water;
pH 6: 0.06 mol of citric acid and 0.16 mol of sodium hydroxide ad 1 liter of water;
pH 7.4: 90.0 g of sodium chloride, 13.61 g of potassium dihydrogen phosphate and 83.35 g of 1 N sodium hydroxide solution are made up to 1 liter with water; this solution is then further diluted 1:10 with Millipore water.
pH 8: 0.013 mol of borax and 0.021 mol of hydrochloric acid ad 1 liter of water.
5 μl portions of the test solution are analyzed by HPLC for their content of unchanged test substance, and of parent substance (A) produced, every hour over a period of 24 hours at 37° C. The percentage areas of the appropriate peaks are used for quantification.
The ratios of the peak areas (F) at the respective time points in relation to the peak areas at the starting time are shown in Table 2 for representative exemplary embodiments: […]

[3] = tested on: heart rate of anesthetized rats; experiment: Influence on the heart rate of anesthetized rats; type: in vivo; settings: maximum decrease in the first 30 min after i.v. bolus of 100 μg/kg of (A) or equivalent dosages; anesthetized male Wistar rats
Description: f) Determination of the Influence on the Heart Rate of Anesthetized Rats:
Male Wistar rats with a body weight above 250 g are employed. In the night before the experiment, the animals receive no feed but still have free access to drinking water. Preparation and investigations are carried out under Trapanal® anesthesia (100 mg/kg i.p.). Injection and infusion take place through a catheter in the jugular vein, and the blood pressure is recorded via a catheter in the femoral artery (transducer: Braun, Melsungen). After the preparation, the animals are connected to a continuous infusion of physiological saline solution to compensate fluid losses. Test substance or placebo solution are administered as bolus after an equilibration time of about 1 h. Heart rate and arterial blood pressure are recorded during the equilibration and over a period of at least 30 min after the bolus injection with the aid of a digital evaluation program.
Table 4 lists the maximum heart rate decrease in the first 30 min after an i.v. bolus of 100 μg/kg of the active substance (A) or of equivalent dosages of representative exemplary embodiments: […]

[4] = i.v. pharmacokinetics in Wistar rats; type: in vivo; settings: after i.v. bolus administration, male Wistar rats
Description: d) i.v. Pharmacokinetics in Wistar Rats:
(§1) On the day before administration of the substance, a catheter for obtaining blood is implanted in the jugular vein of the experimental animals (male Wistar rats, body weight 200-250 g) under Isofluran® anesthesia.
(§2) On the day of the experiment, a defined dose of the test substance is administered as solution into the tail vein using a Hamilton® glass syringe (bolus administration, duration of administration <10 s). Blood samples (8-12 time points) are taken through the catheter sequentially over the course of 24 h after administration of the substance. Plasma is obtained by centrifuging the samples in heparinized tubes. Acetonitrile is added to a defined plasma volume per time point to precipitate proteins. After centrifugation, test substance and, where appropriate, known cleavage products of the test substance in the supernatant are determined quantitatively using a suitable LC/MS-MS method.
The measured plasma concentrations are used to calculate pharmacokinetic parameters of the test substance and of the active ingredient compound (A) liberated therefrom, such as AUC, Cmax, T1/2 (half-life) and CL (clearance).

[5] = Oral pharmacokinetics in Wistar rats; type: in vivo; settings: after oral administration by gavage, male Wistar rats
Description: e) Oral Pharmacokinetics in Wistar Rats:
as §1
as §2, with “stomach by gavage.” for “tail vein using a Hamilton® glass syringe (bolus administration, duration of administration <10 s).”
The measured plasma concentrations are used to calculate pharmacokinetic parameters of the test substance and of the active ingredient compound (A) liberated therefrom, such as AUC, Cmax, T1/2 (half-life).

SMILES: CC(C)[C@H](NC(=O)[C@@H](N)CCCCN)C(=O)OCCOc1ccc(-c2c(C#N)c(N)nc(SCc3csc(-c4ccc(Cl)cc4)n3)c2C#N)cc1 [Example 1, 2-{4-[2-Amino-6-({[2-(4-chlorophenyl)-1,3-thiazol-4-yl]methyl}thio)-3,5-dicyanopyridin-4-yl]-phenoxy}ethyl L-lysyl-L-valinate dihydrochloride]
- solubility thermodynamic at 24 h [1]: > 500 µg/mL
- % test substance after 4 h [F(t = 4 h) × 100/F(t = 0 h)] ([2]; pH 4, 37° C.): 100%
- % test substance after 24 h [F(t = 24 h) × 100/F(t = 0 h)] ([2]; pH 4, 37° C.): 100%
- % test substance after 4 h [F(t = 4 h) × 100/F(t = 0 h)] ([2]; pH 6, 37° C.): 100%
- % test substance after 24 h [F(t = 24 h) × 100/F(t = 0 h)] ([2]; pH 6, 37° C.): 100%
- % test substance after 4 h [F(t = 4 h) × 100/F(t = 0 h)] ([2]; pH 7.4, 37° C.): 99%
- % test substance after 24 h [F(t = 24 h) × 100/F(t = 0 h)] ([2]; pH 7.4, 37° C.): 96%
- % test substance after 4 h [F(t = 4 h) × 100/F(t = 0 h)] ([2]; pH 8, 37° C.): 99%
- % test substance after 24 h [F(t = 24 h) × 100/F(t = 0 h)] ([2]; pH 8, 37° C.): 90%
- Heart rate decrease [3]: 10%

SMILES: C[C@H](NC(=O)[C@@H](N)CCCCN)C(=O)OCCOc1ccc(-c2c(C#N)c(N)nc(SCc3csc(-c4ccc(Cl)cc4)n3)c2C#N)cc1 [Example 4, 2-{4-[2-Amino-6-({[2-(4-chlorophenyl)-1,3-thiazol-4-yl]methyl}thio)-3,5-dicyanopyridin-4-yl]-phenoxy}ethyl L-lysyl-L-alaninate dihydrochloride]
- solubility thermodynamic at 24 h [1]: > 500 µg/mL
- % test substance after 4 h [F(t = 4 h) × 100/F(t = 0 h)] ([2]; pH 4, 37° C.): 100%
- % test substance after 24 h [F(t = 24 h) × 100/F(t = 0 h)] ([2]; pH 4, 37° C.): 100%
- % test substance after 4 h [F(t = 4 h) × 100/F(t = 0 h)] ([2]; pH 5, 37° C.): 100%
- % test substance after 24 h [F(t = 24 h) × 100/F(t = 0 h)] ([2]; pH 5, 37° C.): 98%
- % test substance after 4 h [F(t = 4 h) × 100/F(t = 0 h)] ([2]; pH 6, 37° C.): 97%
- % test substance after 24 h [F(t = 24 h) × 100/F(t = 0 h)] ([2]; pH 6, 37° C.): 84%
- % test substance after 4 h [F(t = 4 h) × 100/F(t = 0 h)] ([2]; pH 7.4, 37° C.): 48%
- % test substance after 24 h [F(t = 24 h) × 100/F(t = 0 h)] ([2]; pH 7.4, 37° C.): 2%
- detectability of test substance in plasma [4]: no longer detectable in plasma even at the first measurement point
- detectability of test substance in plasma [5]: no longer detectable in plasma even at the first measurement point
- Heart rate decrease [3]: 19%

SMILES: N#Cc1c(N)nc(SCc2csc(-c3ccc(Cl)cc3)n2)c(C#N)c1-c1ccc(OCCOC(=O)[C@H](CO)NC(=O)[C@@H](N)CCCCN)cc1 [Example 5, 2-{4-[2-Amino-6-({[2-(4-chlorophenyl)-1,3-thiazol-4-yl]methyl}thio)-3,5-dicyanopyridin-4-yl]-phenoxy}ethyl L-lysyl-L-serinate dihydrochloride]
- solubility thermodynamic at 24 h [1]: > 500 µg/mL
- % test substance after 4 h [F(t = 4 h) × 100/F(t = 0 h)] ([2]; pH 4, 37° C.): 100%
- % test substance after 24 h [F(t = 24 h) × 100/F(t = 0 h)] ([2]; pH 4, 37° C.): 100%
- % test substance after 4 h [F(t = 4 h) × 100/F(t = 0 h)] ([2]; pH 5, 37° C.): 100%
- % test substance after 24 h [F(t = 24 h) × 100/F(t = 0 h)] ([2]; pH 5, 37° C.): 98%
- % test substance after 4 h [F(t = 4 h) × 100/F(t = 0 h)] ([2]; pH 6, 37° C.): 95%
- % test substance after 24 h [F(t = 24 h) × 100/F(t = 0 h)] ([2]; pH 6, 37° C.): 70%
- detectability of test substance in plasma [4]: no longer detectable in plasma even at the first measurement point
- detectability of test substance in plasma [5]: no longer detectable in plasma even at the first measurement point
- Heart rate decrease [3]: 12%

SMILES: N#Cc1c(N)nc(SCc2csc(-c3ccc(Cl)cc3)n2)c(C#N)c1-c1ccc(OCCOC(=O)CC[C@H](N)C(=O)NCCN)cc1 [Example 6, 2-{4-[2-Amino-6-({[2-(4-chlorophenyl)-1,3-thiazol-4-yl]methyl}thio)-3,5-dicyanopyridin-4-yl]-phenoxy}ethyl N-(2-aminoethyl)-L-α-glutaminate dihydrochloride]
- solubility thermodynamic at 24 h [1]: > 500 µg/mL
- % test substance after 4 h [F(t = 4 h) × 100/F(t = 0 h)] ([2]; pH 2, 37° C.): 100%
- % test substance after 24 h [F(t = 24 h) × 100/F(t = 0 h)] ([2]; pH 2, 37° C.): 100%
- % test substance after 4 h [F(t = 4 h) × 100/F(t = 0 h)] ([2]; pH 4, 37° C.): 100%
- % test substance after 24 h [F(t = 24 h) × 100/F(t = 0 h)] ([2]; pH 4, 37° C.): 100%
- % test substance after 4 h [F(t = 4 h) × 100/F(t = 0 h)] ([2]; pH 5, 37° C.): 96%
- % test substance after 24 h [F(t = 24 h) × 100/F(t = 0 h)] ([2]; pH 5, 37° C.): 80%
- % test substance after 4 h [F(t = 4 h) × 100/F(t = 0 h)] ([2]; pH 6, 37° C.): 78%
- % test substance after 24 h [F(t = 24 h) × 100/F(t = 0 h)] ([2]; pH 6, 37° C.): 25%
- % test substance after 4 h [F(t = 4 h) × 100/F(t = 0 h)] ([2]; pH 7.4, 37° C.): 8%
- % test substance after 24 h [F(t = 24 h) × 100/F(t = 0 h)] ([2]; pH 7.4, 37° C.): 0%
- detectability of test substance in plasma [4]: no longer detectable in plasma even at the first measurement point
- detectability of test substance in plasma [5]: no longer detectable in plasma even at the first measurement point
- Heart rate decrease [3]: 17%

SMILES: N#Cc1c(N)nc(SCc2csc(-c3ccc(Cl)cc3)n2)c(C#N)c1-c1ccc(OCCOC(=O)[C@@H](N)CCC(=O)NCCN)cc1 [Example 7, dihydrochloride]
- solubility thermodynamic at 24 h [1]: 100 µg/mL
- % test substance after 4 h [F(t = 4 h) × 100/F(t = 0 h)] ([2]; pH 4, 37° C.): 100%
- % test substance after 24 h [F(t = 24 h) × 100/F(t = 0 h)] ([2]; pH 4, 37° C.): 98%
- % test substance after 4 h [F(t = 4 h) × 100/F(t = 0 h)] ([2]; pH 7.4, 37° C.): 51%
- % test substance after 24 h [F(t = 24 h) × 100/F(t = 0 h)] ([2]; pH 7.4, 37° C.): 2%
- detectability of test substance in plasma [4]: no longer detectable in plasma even at the first measurement point
- Heart rate decrease [3]: 15%
